{
  "source": "patent US20090068276A1",
  "about": "“Pharmaceutical compositions” (Vectura Group plc, priority 2007, published 2009)",
  "experiment": "Involuntary cough on administration of the active agent",
  "type": "in vivo",
  "data": [
    {"compound": "CN(C)CCCN1c2ccccc2CCc2ccc(Cl)cc21", "note": "[clomipramine]", "values": [
      {"measurement": "cough", "setting": "administered via an alternative route to pulmonary inhalation", "result": "the cough is not induced"},
      {"measurement": "involuntary cough", "setting": "administered via pulmonary inhalation", "result": "induces an involuntary cough"}
    ]}
  ]
}
